Results from patent US20130012432A1, “Peptides for Treatment of Obesity” (Novo Nordisk A/S, priority 2010, published 2013).
≈ marks a conversion by molar mass, not a printed value. Positions of bridges follow the written chain, without caps; N, C: chain ends. Non-standard residues stand in square brackets, D forms with d. Residues, ends and D or L forms follow the SMILES beside them. Groups on a side chain read outwards from the residue. *: point of attachment. Palmitoyl(16-(5-tetrazolyl)) = O=C(CCCCCCCCCCCCCCCc1nnn[nH]1)*; Lys(CH2CO2H)2 = N[C@@H](CCCCN(CC(=O)O)CC(=O)O)C(=O)O; C18 diacid = O=C(O)CCCCCCCCCCCCCCCCC(=O)*; Hyp = O=C(O)[C@@H]1C[C@@H](O)CN1; Orn = NCCC[C@H](N)C(=O)O; Dap = NC[C@H](N)C(=O)O; AEEA = NCCOCCOCC(=O)O

Assays:
human MC4 receptor = human MC4 receptor (Homo sapiens, UniProt P32245); assay: biochemical
Protocol: Assay (V)—Melanocortin Receptor 4 (MC4) Binding Assay
In Vitro ^125NDP-α-MSH Binding to Recombinant BHK Cells Expressing Human MC4 Receptor (Filtration Assay).
The assay was performed in 5 ml minisorb vials (Sarstedt No. 55.526) or in 96-well filter-plates (Millipore MADVN 6550), and using BHK cells expressing the human MC4 receptor using BHK cells stably expressing the human MC4 receptor. The membranes were prepared from frozen or fresh cells that were homogenized in 20 mM HEPES pH 7.1, 5 mM MgCl2 and 1 mg/ml bacitracin and centrifuged at 15000 rpm at 4° C., 10 min in a Sorvall RC 5B plus, SS-34 rotor. The supernatant was discarded, and the pellets were re-suspended in buffer, homogenized and centrifuged two more times. The final pellets were resuspended in the buffer mentioned above, and the protein concentration was measured and adjusted with buffer to 14 to 17 mg/ml and the membrane preparation were kept at −80° C. until assay. The assay was run directly on a dilution of this cell membrane suspension, without any further preparation. The BHK cell membranes are kept at −80° C. until assay, and the assay is run directly on a dilution of this cell membrane suspension, without further preparation. The suspension is diluted to give maximally 10% specific binding, i.e. to approx. 50-100 fold dilution. The assay was performed in a total volume of 200 μl: 50 μl of cell suspension, 50 μl of ^125NDP-α-MSH (≈79 pM in final concentration), 50 μl of test compound and 50 μl binding buffer (pH 7) mixed and incubated for 2 h at 25° C. [binding buffer: 25 mM HEPES, pH 7.0, 1 mM CaCl2, 1 mM MgSO4, 1 mM EGTA, 0.02% Bacitracin, 0.005% Tween™ 20 and 0.1% HSA or, alternatively, 0.1% ovalbumin (Sigma; catalogue No. A-5503)]. Test compounds were dissolved in DMSO and diluted in binding buffer. Radiolabelled ligand and membranes were diluted in binding buffer. The incubation was stopped by dilution with 2×100 μl ice-cold 0.9% NaCl. The radioactivity retained on the filters was counted using a Cobra II auto gamma counter.
The data were analysed by non-linear regression analysis of binding curves, using the Windows™ program GraphPad™ Prism (GraphPad Software, USA).

physchem = assay: physchem
Protocol: From a stock solution in vehicle, either H2O or 10 mM phosphate, containing 1 mg (as weighed) compound per ml, 8-11 aliquots are withdrawn and pH-adjusted individually with HCl/NaOH, to cover the whole pH range.

MC1 receptor = MC1 receptor (Homo sapiens, UniProt Q01726); assay: biochemical
In short: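 Radioligand competition on membranes (25 μg/ml) of BHK cells stably expressing MC1, with 22 pM final 125I-NDP-α-MSH in 25 mM HEPES pH 7.4, Ca/Mg, EDTA, 0.1% HSA (or ovalbumin), 0.005% Tween 20. Incubated 90 min at 30 °C, filtered over PEI-treated GF/B; curves fitted by non-linear regression.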

[1] = pH 6.4, Solubility Conc., pH 6.4, vehicle 10 mM phosphate
[2] = pH 6.7, Solubility Conc., pH 6.7, vehicle 10 mM phosphate
[3] = pH 7, Solubility Conc., pH 7.0, vehicle 10 mM phosphate
[4] = pH 7.2, Solubility Conc., pH 7.2, vehicle 10 mM phosphate
[5] = pH 7.8, Solubility Conc., pH 7.8, vehicle 10 mM phosphate

Sequence of human MC4 receptor (P32245 whole entry): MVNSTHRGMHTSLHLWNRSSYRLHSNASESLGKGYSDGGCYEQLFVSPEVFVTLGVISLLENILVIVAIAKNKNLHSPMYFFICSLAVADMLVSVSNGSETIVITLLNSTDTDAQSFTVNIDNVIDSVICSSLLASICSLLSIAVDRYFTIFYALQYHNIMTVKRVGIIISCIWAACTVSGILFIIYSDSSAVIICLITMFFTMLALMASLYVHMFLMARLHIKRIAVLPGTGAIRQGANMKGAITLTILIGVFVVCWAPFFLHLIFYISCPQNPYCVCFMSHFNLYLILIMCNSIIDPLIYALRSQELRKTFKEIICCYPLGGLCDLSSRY
Sequence of MC1 receptor (Q01726 whole entry): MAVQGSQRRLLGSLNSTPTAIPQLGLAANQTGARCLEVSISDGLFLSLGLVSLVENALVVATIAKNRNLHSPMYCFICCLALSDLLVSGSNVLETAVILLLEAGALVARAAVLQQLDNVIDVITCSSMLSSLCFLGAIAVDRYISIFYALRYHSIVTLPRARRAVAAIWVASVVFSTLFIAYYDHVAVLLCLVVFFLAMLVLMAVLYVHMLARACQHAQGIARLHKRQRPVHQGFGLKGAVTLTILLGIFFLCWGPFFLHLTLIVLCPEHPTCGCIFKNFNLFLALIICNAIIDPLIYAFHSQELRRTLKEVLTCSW

SMILES	Ki (human MC4 receptor)	solubility (physchem; [1])	solubility (physchem; [2])	solubility (physchem; [3])	solubility (physchem; [4])	solubility (physchem; [5])	solubility (physchem; pH 7.4, Solubility Conc.)	solubility (physchem; pH 7.5, Solubility Conc.)	solubility (physchem; pH 7.7, Solubility Conc.)	solubility (physchem; pH 7.9, Solubility Conc.)	solubility (physchem; pH 6.6, Solubility Conc.)	solubility (physchem; pH 6.9, Solubility Conc.)	solubility (physchem; pH 7.2, Solubility Conc.)	solubility (physchem; pH 7.3, Solubility Conc.)	other results
CC(=O)N[C@H]1CCCNC(=O)C[C@@H](C(=O)N2CCC[C@H]2C(=O)N[C@@H](CO)C(=O)N[C@@H](CO)C(=O)N[C@@H](CO)C(=O)N[C@@H](CCCCN(CC(=O)O)CC(=O)O)C(=O)N[C@@H](CO)C(=O)N[C@@H](CO)C(=O)N[C@@H](CCCCNC(=O)COCCOCCNC(=O)CCCCCCCCCCCCCCCCC(=O)O)C(N)=O)NC(=O)[C@H](Cc2c[nH]c3ccccc23)NC(=O)[C@H](CCCNC(=N)N)NC(=O)[C@@H](Cc2ccccc2)NC(=O)[C@H](Cc2c[nH]cn2)NC1=O [Example 14, Ac-c[Orn-His-D-Phe-Arg-Trp-Asp]-Pro-Ser-Ser-Ser-Lys(biscarboxymethyl)-Ser-Ser-Lys({2-[2-(17-carboxyheptadecanoylamino)ethoxy]ethoxy}acetyl)-NH2] (Ac-[Orn]H[dF]RWDPSSS[Lys(CH2CO2H)2]SSK([AEEA-C18 diacid])-NH2; lactam 1-6)	0.8 nM	61 µM (≈ 137 µg/mL)	148 µM (≈ 332 µg/mL)	485 µM (≈ 1090 µg/mL)	507 µM (≈ 1140 µg/mL)	506 µM (≈ 1140 µg/mL)									solubility (physchem; pH 6.9, Solubility Conc., pH 6.9, vehicle 10 mM phosphate): 403 µM (≈ 904 µg/mL); solubility (physchem; pH 7.3, Solubility Conc., pH 7.3, vehicle 10 mM phosphate): 535 µM (≈ 1200 µg/mL); solubility (physchem; pH 7.4, Solubility Conc., pH 7.4, vehicle 10 mM phosphate): 513 µM (≈ 1150 µg/mL); solubility (physchem; pH 8, Solubility Conc., pH 8.0, vehicle 10 mM phosphate): 517 µM (≈ 1160 µg/mL)
CC(=O)N[C@H]1CCC(=O)NCCC[C@@H](C(=O)N2CCC[C@H]2C(=O)N2CCC[C@H]2C(=O)N[C@@H](CCCNC(=N)N)C(=O)N[C@@H](CC(=O)O)C(=O)N[C@@H](CCCCN(CC(=O)O)CC(=O)O)C(=O)N[C@@H](CCCCNC(=O)COCCOCCNC(=O)CCCCCCCCCCCCCCCCC(=O)O)C(N)=O)NC(=O)[C@H](Cc2c[nH]c3ccccc23)NC(=O)[C@H](CCCNC(=N)N)NC(=O)[C@@H](Cc2ccccc2)NC(=O)[C@H](Cc2cnc[nH]2)NC1=O [Example 38, Ac-c[Glu-His-D-Phe-Arg-Trp-Orn]-Pro-Pro-Arg-Asp-Lys(biscarboxymethyl)-Lys({2-[2-(17-carboxyheptadecanoylamino)ethoxy]ethoxy}acetyl)-NH2] (Ac-EH[dF]RW[Orn]PPRD[Lys(CH2CO2H)2]K([AEEA-C18 diacid])-NH2; lactam 1-6)	0.9 nM						218 µM (≈ 478 µg/mL)	282 µM (≈ 618 µg/mL)	422 µM (≈ 924 µg/mL)	430 µM (≈ 942 µg/mL)					solubility (physchem; pH 5.4, Solubility Conc.): 21 µM (≈ 46 µg/mL); solubility (physchem; pH 6.2, Solubility Conc.): 36 µM (≈ 78.9 µg/mL); solubility (physchem; pH 6.5, Solubility Conc.): 58 µM (≈ 127 µg/mL); solubility (physchem; pH 7, Solubility Conc.): 111 µM (≈ 243 µg/mL); solubility (physchem; pH 7.6, Solubility Conc.): 360 µM (≈ 789 µg/mL)
CC(=O)N[C@H]1CCCNC(=O)C[C@@H](C(=O)N2CCC[C@H]2C(=O)N[C@@H](CO)C(=O)N[C@@H](CO)C(=O)N[C@@H](CO)C(=O)N[C@@H](CCCCN(CC(=O)O)CC(=O)O)C(=O)N[C@@H](CO)C(=O)N[C@@H](CO)C(=O)N[C@@H](CCCCNC(=O)COCCOCCNC(=O)CCCCCCCCCCCCCCCc2nnn[nH]2)C(N)=O)NC(=O)[C@H](Cc2c[nH]c3ccccc23)NC(=O)[C@H](CCCNC(=N)N)NC(=O)[C@@H](Cc2ccccc2)NC(=O)[C@H](Cc2c[nH]cn2)NC1=O [Example 28, Ac-c[Orn-His-D-Phe-Arg-Trp-Asp]-Pro-Ser-Ser-Ser-Lys(biscarboxymethyl)-Ser-Ser-Lys[(2-{2-[16-(tetrazol-5-yl)hexadecanoylamino]ethoxy}ethoxy)acetyl]-NH2] (Ac-[Orn]H[dF]RWDPSSS[Lys(CH2CO2H)2]SSK([AEEA-Palmitoyl(16-(5-tetrazolyl))])-NH2; lactam 1-6)	0.9 nM	59 µM (≈ 133 µg/mL)	126 µM (≈ 284 µg/mL)	382 µM (≈ 861 µg/mL)	406 µM (≈ 915 µg/mL)	433 µM (≈ 976 µg/mL)									solubility (physchem; pH 4.8, Solubility Conc., pH 4.8, vehicle 10 mM phosphate): 71 µM (≈ 160 µg/mL); solubility (physchem; pH 5.6, Solubility Conc., pH 5.6, vehicle 10 mM phosphate): 40 µM (≈ 90.1 µg/mL); solubility (physchem; pH 7.5, Solubility Conc., pH 7.5, vehicle 10 mM phosphate): 410 µM (≈ 924 µg/mL); solubility (physchem; pH 8.1, Solubility Conc., pH 8.1, vehicle 10 mM phosphate): 415 µM (≈ 935 µg/mL)
CC(=O)N[C@H]1CCCNC(=O)C[C@@H](C(=O)N2CCC[C@H]2C(=O)N2CCC[C@H]2C(=O)N[C@@H](CCCNC(=N)N)C(=O)N[C@@H](CCC(=O)O)C(=O)N[C@@H](CCCCN(CC(=O)O)CC(=O)O)C(=O)N[C@@H](CCCCNC(=O)COCCOCCNC(=O)CCCCCCCCCCCCCCCCC(=O)O)C(N)=O)NC(=O)[C@H](Cc2c[nH]c3ccccc23)NC(=O)[C@H](CCCNC(=N)N)NC(=O)[C@@H](Cc2ccccc2)NC(=O)[C@H](Cc2c[nH]cn2)NC1=O [Example 34, Ac-c[Orn-His-D-Phe-Arg-Trp-Asp]-Pro-Pro-Arg-Glu-Lys(biscarboxymethyl)-Lys({2-[2-(17-carboxyheptadecanoylamino)ethoxy]ethoxy}acetyl)-NH2] (Ac-[Orn]H[dF]RWDPPRE[Lys(CH2CO2H)2]K([AEEA-C18 diacid])-NH2; lactam 1-6)	0.8 nM						355 µM (≈ 778 µg/mL)				62 µM (≈ 136 µg/mL)	87 µM (≈ 191 µg/mL)	165 µM (≈ 361 µg/mL)	261 µM (≈ 572 µg/mL)	solubility (physchem; pH 5.5, Solubility Conc.): 27 µM (≈ 59.1 µg/mL); solubility (physchem; pH 6.3, Solubility Conc.): 42 µM (≈ 92 µg/mL); solubility (physchem; pH 7.8, Solubility Conc.): 420 µM (≈ 920 µg/mL); solubility (physchem; pH 8, Solubility Conc.): 360 µM (≈ 789 µg/mL)
CC(=O)N[C@H]1CCC(=O)NC[C@@H](C(=O)N2C[C@H](O)C[C@H]2C(=O)N2C[C@H](O)C[C@H]2C(=O)N[C@@H](CCCNC(=N)N)C(=O)N[C@@H](CC(=O)O)C(=O)N[C@@H](CCCCN(CC(=O)O)CC(=O)O)C(=O)N[C@@H](CCCCNC(=O)COCCOCCNC(=O)CCCCCCCCCCCCCCCc2nnn[nH]2)C(N)=O)NC(=O)[C@H](Cc2c[nH]c3ccccc23)NC(=O)[C@H](CCCNC(=N)N)NC(=O)[C@@H](Cc2ccccc2)NC(=O)[C@H](Cc2c[nH]cn2)NC1=O [Example 31, Ac-c[Glu-His-D-Phe-Arg-Trp-Dap]-Hyp-Hyp-Arg-Asp-Lys(biscarboxymethyl)-Lys[(2-{2-[16-(tetrazol-5-yl)hexadecanoylamino]ethoxy}ethoxy)acetyl]-NH2] (Ac-EH[dF]RW[Dap][Hyp][Hyp]RD[Lys(CH2CO2H)2]K([AEEA-Palmitoyl(16-(5-tetrazolyl))])-NH2; lactam 1-6)	17 nM						228 µM (≈ 503 µg/mL)	440 µM (≈ 970 µg/mL)	495 µM (≈ 1090 µg/mL)	529 µM (≈ 1170 µg/mL)	36 µM (≈ 79.4 µg/mL)	61 µM (≈ 134 µg/mL)		96 µM (≈ 212 µg/mL)	solubility (physchem; pH 8.1, Solubility Conc.): 472 µM (≈ 1040 µg/mL); Ki (MC1 receptor): > 10000 nM
CC(=O)N[C@H]1CC(=O)NCCCC[C@@H](C(=O)N2CCC[C@H]2C(=O)N2CCC[C@H]2C(=O)N[C@@H](CCCNC(=N)N)C(=O)N[C@@H](CC(=O)O)C(=O)N[C@@H](CCCCN(CC(=O)O)CC(=O)O)C(=O)N[C@@H](CCCCNC(=O)COCCOCCNC(=O)CCCCCCCCCCCCCCCc2nnn[nH]2)C(N)=O)NC(=O)[C@H](Cc2c[nH]c3ccccc23)NC(=O)[C@H](CCCNC(=N)N)NC(=O)[C@@H](Cc2ccccc2)NC(=O)[C@H](Cc2c[nH]cn2)NC1=O [Example 35, Ac-c[Asp-His-D-Phe-Arg-Trp-Lys]-Pro-Pro-Arg-Asp-Lys(biscarboxymethyl)-Lys[(2-{2-[16-(tetrazol-5-yl)hexadecanoylamino]ethoxy}ethoxy)acetyl]-NH2] (Ac-DH[dF]RWKPPRD[Lys(CH2CO2H)2]K([AEEA-Palmitoyl(16-(5-tetrazolyl))])-NH2; lactam 1-6)	13 nM						425 µM (≈ 935 µg/mL)	526 µM (≈ 1160 µg/mL)	537 µM (≈ 1180 µg/mL)	572 µM (≈ 1260 µg/mL)			126 µM (≈ 277 µg/mL)	211 µM (≈ 464 µg/mL)	solubility (physchem; pH 6.4, Solubility Conc.): 24 µM (≈ 52.8 µg/mL); solubility (physchem; pH 6.8, Solubility Conc.): 44 µM (≈ 96.8 µg/mL)
